Series [1] concerns T-24. As to the kind of experiment: Induction of mitochondrial mediated apoptosis in human T24 cells assessed as increase in Bak protein expression at 10 to 15 uM incubated for 24 hrs by Western blotting analysis. Type of series: functional, cell-based. As to conditions: dose 10-15 µM. (In general: In western blotting, separated proteins are transferred to a membrane and probed.)

Series [2] deals with T-24. As to the kind of experiment: Induction of DNA damage in human T24 cells assessed as increase in gamma H2AX phosphorylation at 10 uM incubated for 24 hrs by Hoechst33258 staining based immunofluorescence assay. Type of series: functional, cell-based.
For series [3], the system named is T-24. As to the kind of experiment: Induction of mitochondrial membrane potential dysfunction in human T24 cells assessed as mitochondrial fragment condensation at 10 to 15 uM by mito-tracker green dye based fluorescence microscopy. It is filed as functional, cell-based. As to conditions: dose 10-15 µM.
Series [4] has as its system T-24. As to the kind of experiment: Induction of cell cycle arrest in human T24 cells assessed as accumulation of cells at G1 phase at 15 uM incubated for 24 hrs by propidium iodide/RNase A staining based flow cytometry analysis (reference value: 51.71 %). It is filed as functional.
Series [5] has as its system T-24. As to the kind of experiment: Induction of apoptosis in human T24 cells assessed as necrotic cells at 20 uM incubated for 24 hrs by Annexin-V/PI staining based flow cytometry analysis (reference value: 1.92 %). Type of series: functional. A general note: Flow cytometry measures light scatter and fluorescence of single cells or particles in a stream.
Series [6] relates to T-24. As to the kind of experiment: Induction of apoptosis in human T24 cells assessed as condensation of nuclei at 10 uM by Hoechst33258 staining based fluorescence microscopy. It is filed as functional, cell-based.
The nature of series [7]: Toxicity in human WI-38 cells assessed as wound closure at 5 uM measured after 24 hrs by fluorescence microscopy based wound healing assay. Type of series: cell-based. As to conditions: wi-38, 24 h.
The test system of series [8] is T-24. The experiment in a line: Induction of mitochondrial membrane potential dysfunction in human T24 cells assessed as increase in fragmentation at 10 uM incubated for 24 hrs by TEM analysis. Type of series: functional, cell-based.
The test system of series [9] is T-24. As to the kind of experiment: Induction of mitochondrial membrane potential dysfunction in human T24 cells assessed as change in morphology at 10 to 15 uM by Mitotracker green dye based fluorescence microscopy. It is filed as functional, cell-based. As to conditions: dose 10-15 µM.
For series [10], the system named is T-24. As to the kind of experiment: Induction of apoptosis in human T24 cells assessed as condensed chromatin at 10 uM by Hoechst33258 staining based fluorescence microscopy. Type of series: functional, cell-based.
In series [11] the test system is T-24. As to the kind of experiment: Induction of mitochondrial membrane potential dysfunction in human T24 cells assessed as depolarised cells at 10 uM incubated for 24 hrs by JC-1 staining based flow cytometry (reference value: 6.20%). It is filed as functional.
Series [12] relates to T-24. As to the kind of experiment: Induction of mitochondrial mediated apoptosis in human T24 cells assessed as upregulation of cytochrome c expression at 10 to 15 uM incubated for 24 hrs by Western blotting analysis. It is filed as functional, cell-based. The following applies: dose 10-15 µM.
Series [13] has as its system T-24. As to the kind of experiment: Induction of mitochondrial membrane potential dysfunction in human T24 cells assessed as depolarised cells at 15 uM incubated for 24 hrs by JC-1 staining based flow cytometry (reference value: 6.20%). Type of series: functional.
In series [14] the test system is T-24. As to the kind of experiment: Induction of apoptosis in human T24 cells assessed as viable cells at 4 uM incubated for 24 hrs by Annexin-V/PI staining based flow cytometry analysis (reference value: 94.3 %). Type of series: functional. The following applies: read-out: Activity.
For series [15], the system named is T-24. The experiment in a line: Induction of cell cycle arrest in human T24 cells assessed as upregulation of Cyclin E expression at 2 to 4 uM incubated for 24 hrs by chemiluminescence based Western blotting analysis. Type of series: functional. As to conditions: dose 2-4 µM.
The test system of series [16] is T-24. As to the kind of experiment: Induction of apoptosis in human T24 cells assessed as necrotic cells at 4 uM incubated for 24 hrs by Annexin-V/PI staining based flow cytometry analysis (reference value: 1.92 %). It is filed as functional.
In series [17] the test system is T-24. The experiment in a line: Induction of apoptosis in human T24 cells assessed as necrotic cells at 6 uM incubated for 24 hrs by Annexin-V/PI staining based flow cytometry analysis (reference value: 1.92 %). It is filed as functional.
Series [18] concerns T-24. As to the kind of experiment: Induction of mitochondrial membrane potential dysfunction in human T24 cells assessed as disappearance of cristae at 2 uM incubated for 24 hrs by TEM analysis. Type of series: functional, cell-based.
For series [19], the system named is T-24. As to the kind of experiment: Induction of apoptosis in human T24 cells assessed as late apoptotic cells at 6 uM incubated for 24 hrs by Annexin-V/PI staining based flow cytometry analysis (reference value: 0.543 %). It is filed as functional.
In series [20] the test system is T-24. As to the kind of experiment: Induction of DNA damage in human T24 cells assessed as increase in gamma H2AX phosphorylation at 2 uM incubated for 24 hrs by Hoechst33258 staining based immunofluorescence assay. Type of series: functional, cell-based.
For series [21], the system named is T-24. The experiment in a line: Cytotoxicity against human T24 cells assessed as decrease in cell viability at 2 uM by MTT assay. Type of series: toxicity, cell-based. As to conditions: t-24, 72 h, TDE = time-dependent effect. For orientation: Tetrazolium dyes change colour on reduction, which living cells bring about.
In series [22] the test system is T-24. The experiment in a line: Induction of cell cycle arrest in human T24 cells assessed as accumulation of cells at S phase at 2 uM incubated for 24 hrs by propidium iodide/RNase A staining based flow cytometry analysis (reference value: 42.47 %). It is filed as functional.
Series [23] relates to T-24. As to the kind of experiment: Induction of mitochondrial membrane potential dysfunction in human T24 cells assessed as depolarised cells at 2 uM incubated for 24 hrs by JC-1 staining based flow cytometry (reference value: 6.20%). It is filed as functional.
The subject of series [24] is T-24. As to the kind of experiment: Induction of mitochondrial membrane potential dysfunction in human T24 cells assessed as increase in fragmentation at 2 uM incubated for 24 hrs by TEM analysis. It is filed as functional, cell-based.
Series [25] concerns T-24. As to the kind of experiment: Induction of apoptosis in human T24 cells assessed as increase in caspase 9 activity at 0.5 uM (Rvb= 7.2%). Type of series: functional.
In series [26] the test system is T-24. The experiment in a line: Induction of apoptosis in human T24 cells assessed as necrotic cells at 0.5 uM incubated for 24 hrs by Annexin-V/PI staining based flow cytometry analysis (reference value: 1.92 %). It is filed as functional.
Series [27] deals with T-24. As to the kind of experiment: Induction of apoptosis in human T24 cells assessed as late apoptotic cells at 0.5 uM incubated for 24 hrs by Annexin-V/PI staining based flow cytometry analysis (reference value: 0.543 %). Type of series: functional.
Series [28] has as its system T-24. The experiment in a line: Induction of cell cycle arrest in human T24 cells assessed as accumulation of cells at G2/M phase at 0.5 uM incubated for 24 hrs by propidium iodide/RNase A staining based flow cytometry analysis (reference value: 5.82 %). It is filed as functional.
Series [29] relates to T-24. The experiment in a line: Induction of mitochondrial membrane potential dysfunction in human T24 cells assessed as depolarised cells at 0.5 uM incubated for 24 hrs by JC-1 staining based flow cytometry (reference value: 6.20%). It is filed as functional.
The subject of series [30] is T-24. The experiment in a line: Induction of mitochondrial membrane potential dysfunction in human T24 cells assessed as change in morphology at 0.5 to 1 uM by Mitotracker green dye based fluorescence microscopy. Type of series: functional, cell-based. As to conditions: dose 0.5-1 µM.
Series [31] relates to T-24. The experiment in a line: Induction of DNA damage in human T24 cells assessed as increase in gamma H2AX expression at 0.5 to 1 uM incubated for 24 hrs by Western blot analysis. It is filed as functional, cell-based. As to conditions: dose 0.5-1 µM.
For series [32], the system named is T-24. The experiment in a line: Induction of ROS generation in human T24 cells at 0.5 uM by fluorescence microscopy. Type of series: functional, cell-based.
Series [33] relates to T-24. The experiment in a line: Induction of apoptosis in human T24 cells assessed as early apoptotic cells at 1 uM incubated for 24 hrs by Annexin-V/PI staining based flow cytometry analysis (reference value: 3.27 %). Type of series: functional.
In series [34] the test system is T-24. The experiment in a line: Induction of Ca2+ production in human T24 cells assessed as increase in intracellular Ca2+ concentration at 0.5 uM by Fluo3-AM staining based fluorescence microscopic method. Type of series: functional, cell-based.
The test system of series [35] is T-24. As to the kind of experiment: Induction of apoptosis in human T24 cells assessed as necrotic cells at 1 uM incubated for 24 hrs by Annexin-V/PI staining based flow cytometry analysis (reference value: 1.92 %). It is filed as functional.
The subject of series [36] is T-24. The experiment in a line: Induction of mitochondrial membrane potential dysfunction in human T24 cells assessed as mitochondrial fragment condensation at 0.5 to 1 uM by mito-tracker green dye based fluorescence microscopy. It is filed as functional, cell-based. As to conditions: dose 0.5-1 µM.

This is an account of results in ChEMBL document CHEMBL5131473, “One-pot synthesis of oxoaporphines as potent antitumor agents and investigation of their mechanisms of actions” (Eur J Med Chem, 2022).

Active and inactive are the calls of the source. The calls are words filed in the database; no cut-off is given here.

Take `O=C1c2ccccc2-c2cccc3ccnc1c23`: the result in the series on T-24 [1], in the series with T-24 [2], in the series on T-24 [3], in the series with T-24 [6], in the series on T-24 [8] and in the series on T-24 [9] was Active. Besides, the outcome in the series with T-24 [10] and in the series on T-24 [12] was Active. Also, the Activity with T-24 [4] was 31.02%; in the series with T-24 [5], 2.31%; in series [7], “Non-Toxic”; in the series on T-24 [11], 11.7%; in the series with T-24 [13], 25.6%.

Turning to `O=C1c2cc([N+](=O)[O-])ccc2-c2ccc([N+](=O)[O-])c3ccnc1c23`, in the series on T-24 [14], the viability at 4 µM turned out to be 59.4%. Moreover, the result in the series with T-24 [15], with T-24 [18], with T-24 [20] and in the series with T-24 [24] was Active. Besides, the Activity is 2.8% with T-24 [16]; 3.14% in the series on T-24 [17]; 6.56% in the series with T-24 [19]; “Tde” with T-24 [21]; 66.71% with T-24 [22]; 15.9% in the series with T-24 [23].

Take `O=C1c2ccccc2-c2ccc([N+](=O)[O-])c3ccnc1c23`: the Activity with T-24 [25] is on record as 26.9%; with T-24 [26], 1.54%; in the series with T-24 [27] it was 5.1%; with T-24 [28], 52.05%; with T-24 [29], 37%; in the series on T-24 [33], 39.5%. Also, the Activity with T-24 [35] is reported as 1.57%. Further, the result in the series on T-24 [30], with T-24 [31], in the series with T-24 [32], in the series with T-24 [34] and in the series with T-24 [36] was Active.
